This is an account of results in patent publication US12274687B2, “Methods for treating ascites” (Martin Pharmaceuticals, Inc., priority 2021, dated 2025).

“Also recorded” adds a separate entry of the source.

One series deals with RA patients. The settings on record: small cohort of RA patients; cited from earlier work.
The test system of series [1] is cirrhotic subjects with RA. Description: Open-label, single-arm clinical study of docarpamine on ascites formation (frequency of LVP, volume of ascitic fluid drained). Type of series: in vivo, human. How it is done: An open-label, single-arm study in which each subject serves as his/her own control is conducted. The study assesses the effect of DCP treatment on ascites formation in cirrhotic subjects with RA, by examining the frequency of LVP and the volume of ascitic fluid drained. All subjects participate in a 90-day open-label treatment period. […] Ascites history (relevant medications, LVP dates, and volume of drained fluid) for the 90 days prior to treatment and the 90 days after treatment are collected and used for comparison with on-treatment frequency and volume. The study population consists of cirrhotic patients between 18 and 70 years of age, inclusive, with refractory ascites, subject to the following inclusion and exclusion criteria. • Patients 18 years to 70 years of age. • Documented cirrhosis of the liver. • Refractory ascites, defined as ascites not manageable with diuretics and diet restriction, managed with periodic large volume therapeutic paracentesis. • Patients must have therapeutic […] 3 days prior to enrollment and a documented minimum of 3 additional therapeutic […] 90 days prior to enrollment, with at least 1 every 30 days. • Outpatient, with expected survival of at least 6 months. • Willing and able to complete an informed consent form.

For a further series, the system named is patients with RA. The settings on record: cited from earlier work.
The conditions of series [2]: administered orally; high rates of metabolism in gut / small intestine and liver; cited from earlier work.
[3] abbreviates: high dose 4500 mg per day (1500 mg 3 times per day), 90 days treatment, on average, vs 90 days prior to treatment.

On to `CCOC(=O)Oc1ccc(CCNC(=O)[C@H](CCSC)NC(C)=O)cc1OC(=O)OCC` [docarpamine], for which the “efficacy in refractory ascites” value with RA patients was “effective”. Moreover, in series [1] (750 mg 3 times per day (2250 mg per day), 90 days: effects not observed), the “effects on LVP, ascites volume and renal markers at low dose” value was “only in the high dose”. Also, the “time during which patients do not require LVP” value in series [1] (4500 mg per day group, some patients / others) was “more than one month; also recorded: more than two months”. Further, in series [1] (4500 mg per day, 90 days), the “other markers of improved renal function” value is given as “respond positively” and the sodium excretion entry is listed as “Increased”. Also, the “Renin and/or aldosterone levels” value in series [1] (4500 mg per day, many patients, in some cases to normal) is listed as “reduced”. Further, the “urinary output on treatment” value in series [1] (4500 mg per day, most patients, from 500-1000 ml before, printed '1500-2000 ml or more') was in the range of 1500 to 2000 mL. In series [1] (setting [3]), the “frequency of LVP over 90 days” value is given as “reduced by more than half” and the “volume of ascites removed over 90 days” value is given as “reduced by more than half”. In addition, in series [1] (off-treatment follow-up after 90 days at 4500 mg per day), the “frequency and volume of LVP once a patient stops treatment” value is listed as “greater decreases”. In series [1] (off-treatment follow-up, before beginning to increase again), the “persistence of the decrease in LVP after stopping treatment” value is “one or more months”.
As to `NCCc1ccc(O)c(O)c1` [dopamine], in the series on patients with RA, the “changes of blood urea nitrogen, creatinine, creatinine clearance, blood pressure, pulse rate, serum sodium, serum aldosterone and GFR” value is recorded as “no difference”; the “effective renal plasma flow” value is reported as “Positive effects”. Also, the oral bioavailability entry in series [2] is on record as “not orally bioavailable”.
